We go through 22 compounds from ChEMBL document CHEMBL4725309, “Potent, non-covalent reversible BTK inhibitors with 8-amino-imidazo[1,5-a]pyrazine core featuring 3-position bicyclic ring substitutes” (Bioorg Med Chem Lett, 2020).

For orientation: pIC50 means the IC50 on a negative log10 scale, so that one unit is a factor of ten. Broadly, the AUC is the area under the concentration-time curve, a measure of exposure. Low values mean low exposure, high ones high exposure. As a reminder, the clearance is the volume of plasma or blood freed of the substance per unit of time. A high value points to a high capacity for elimination. For orientation: half-life means how long it takes for the measured level to halve. Higher therefore signals slow loss. The Cmax is the maximum level reached in the sampled fluid or tissue. The term Tmax denotes the time from dosing to the highest level. The term bioavailability denotes dose-corrected exposure relative to a reference, in per cent.

pIC50: −log10 of the molar value.

In series [1] the target is T1, Tyrosine-protein kinase BTK (Homo sapiens, UniProt Q06187). As to the kind of experiment: Inhibition of BTK in human PBMC assessed as reduction in cell surface CD69 expression preincubated for 1 hr followed by stimulation with goat anti-human IgM F(ab')2 for 18 hrs by immunostaining analysis. It counts as tissue-based.
Series [2] addresses T1, Tyrosine-protein kinase BTK. As to the kind of experiment: Inhibition of recombinant full length BTK (unknown origin) expressed in baculovirus infected Sf9 cells using Biotin-EQEDEPEGDYFEWLE-NH2 peptide as substrate incubated for 60 mins followed by further incubation with substrate and ATP for 120 mins by TR-FRET assay. In general terms: Time-resolved FRET reads energy transfer from a long-lived donor to a nearby acceptor.

The nature of series [3]: AUC in Wistar Han rat at 2 mg/kg, iv. The class given is ADME, organism-based. Also noted: dose 2 mg/kg. Particulars: in vivo.
Series [4] in a line: AUC in Beagle dog at 1 mg/kg, iv. Particulars: in vivo. The class given is ADME, organism-based, Canis lupus familiaris. Also noted: dose 1 mg/kg.
Series [5] addresses T1, Tyrosine-protein kinase BTK. As to the kind of experiment: Inhibition of BTK in human whole blood assessed as reduction in cell surface CD69 expression preincubated for 1 hr followed by stimulation with anti-CD79b for 3 hrs by immunostaining analysis. It counts as tissue-based.
Series [6] in a line: Clearance in Wistar Han rat at 2 mg/kg, iv. It counts as ADME, organism-based. Particulars: in vivo.
Series [7] can be described thus: Volume of distribution at steady state in Wistar Han rat at 2 mg/kg, iv. The class given is ADME, organism-based. Particulars: in vivo, read-out: Vdss.
A short description of series [8]: Half life in Wistar Han rat at 2 mg/kg, iv. The settings on record: in vivo. It counts as ADME, organism-based.
Series [9] can be described thus: Cmax in Wistar Han rat at 5 mg/kg, po. The class given is ADME, organism-based. Also noted: route oral, dose 5 mg/kg. Particulars: in vivo.
The nature of series [10]: Tmax in Wistar Han rat at 5 mg/kg, po. Particulars: in vivo. The class given is ADME, organism-based.
A short description of series [11]: Oral bioavailability in Wistar Han rat at 5 mg/kg. The settings on record: Wistar Han, in vivo. It counts as ADME, organism-based.

T1 sequence (Q06187 whole entry): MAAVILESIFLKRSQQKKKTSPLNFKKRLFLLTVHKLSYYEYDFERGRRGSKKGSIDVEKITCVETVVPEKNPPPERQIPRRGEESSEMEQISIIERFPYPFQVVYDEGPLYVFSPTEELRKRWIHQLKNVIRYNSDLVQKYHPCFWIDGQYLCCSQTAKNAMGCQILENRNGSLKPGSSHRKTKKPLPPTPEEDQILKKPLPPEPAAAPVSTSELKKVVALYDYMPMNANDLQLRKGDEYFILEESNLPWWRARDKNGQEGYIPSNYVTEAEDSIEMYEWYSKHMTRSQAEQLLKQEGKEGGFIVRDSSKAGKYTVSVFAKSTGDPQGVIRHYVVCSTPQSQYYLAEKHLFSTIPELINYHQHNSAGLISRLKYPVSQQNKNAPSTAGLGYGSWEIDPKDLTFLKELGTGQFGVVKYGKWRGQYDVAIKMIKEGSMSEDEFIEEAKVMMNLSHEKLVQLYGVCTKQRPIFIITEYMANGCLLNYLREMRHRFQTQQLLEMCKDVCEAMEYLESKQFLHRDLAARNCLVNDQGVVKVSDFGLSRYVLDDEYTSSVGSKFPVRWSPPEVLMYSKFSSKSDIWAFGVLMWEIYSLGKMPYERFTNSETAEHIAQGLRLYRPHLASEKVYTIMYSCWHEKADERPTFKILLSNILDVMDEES

As to `CC(C)Oc1cc(C(=O)Nc2cc(C(F)(F)F)ccn2)ccc1-c1nc([C@@H]2CC[C@H]3CCC(=O)N3C2)n2ccnc(N)c12`, in series [1], the pIC50 is 7.39.

On to `Nc1nccn2c([C@H]3CN4C(=O)OC[C@@H]4CO3)nc(-c3ccc(C(=O)Nc4cc(C(F)(F)F)ccn4)cc3)c12`, for which the pIC50 is 7.60 in series [2] and 6.24 in series [1].

Consider `C[C@H]1CC[C@@H](c2nc(-c3ccc(C(=O)Nc4cc(C(F)(F)F)ccn4)cc3F)c3c(N)nccn23)CN1C(=O)C1CC1`, for which the figures for the exposure (AUC) in series [3] and in series [4] were 3.1 µM·h and 20 µM·h, respectively.

In the case of `Nc1nccn2c([C@@H]3CC[C@H]4COCC(=O)N4C3)nc(-c3ccc(C(=O)Nc4cc(C(F)(F)F)ccn4)cc3F)c12`, the pIC50 is 10.00 in [2], 8.24 in series [1] and 7.11 in series [5].

For the compound `Nc1nccn2c([C@@H]3CC[C@H]4CCC(=O)N4C3)nc(-c3ccc(C(=O)Nc4cc(C(F)(F)F)ccn4)cc3Oc3ccccc3)c12`, the pIC50 was 7.96 in [2] and 6.51 in series [1].

With `C[C@H]1OC(=O)N2C[C@H](c3nc(-c4ccc(C(=O)Nc5cc(C(F)(F)F)ccn5)cc4)c4c(N)nccn34)CC[C@@H]12`, the pIC50 in series [1] is 8.49; in [5] it was 7.20.

Regarding `NC(=O)c1cc(C(=O)Nc2cc(C(F)(F)F)ccn2)ccc1-c1nc([C@@H]2CC[C@H]3CCC(=O)N3C2)n2ccnc(N)c12`, in series [1], the pIC50 was less than 5.52.

As to `Nc1nccn2c([C@@H]3CC[C@H]4CCC(=O)N4C3)nc(-c3ccc(C(=O)Nc4cc(C(F)(F)F)ccn4)cc3C(F)(F)F)c12`, the pIC50 in series [2] is less than 6.00; in [1], less than 5.52.

Take `Nc1nccn2c([C@@H]3CC[C@H]4CCCN4C3)nc(-c3ccc(C(=O)Nc4cc(C(F)(F)F)ccn4)cc3)c12`: the pIC50 in series [1] is 7.41; in [5], 6.69.

For `Nc1nccn2c([C@@H]3CC[C@H]4CCCC(=O)N4C3)nc(-c3ccc(C(=O)Nc4cc(C(F)(F)F)ccn4)cc3F)c12`, the pIC50 in [1] was 7.41.

`Nc1nccn2c([C@H]3CN4C(=O)CC[C@@H]4CO3)nc(-c3ccc(C(=O)Nc4cc(C(F)(F)F)ccn4)cc3)c12`: the pIC50 is 8.14 in series [1] and 6.58 in [5].

`Nc1nccn2c([C@@H]3CC[C@H]4CCC(=O)N4C3)nc(-c3ccc(C(=O)Nc4cc(C(F)(F)F)ccn4)cc3C(=O)O)c12`: the pIC50 in series [1] is 5.85.

As for `CN1CC(=O)N2C[C@H](c3nc(-c4ccc(C(=O)Nc5cc(C(F)(F)F)ccn5)cc4F)c4c(N)nccn34)CC[C@H]2C1`, the values for the pIC50 in series [2], in series [1] and in [5] were 9.59, 7.80 and 6.98, respectively.

Turning to `Nc1nccn2c([C@@H]3CC[C@H]4CCC(=O)N4C3)nc(-c3ccc(C(=O)Nc4cc(C(F)(F)F)ccn4)cc3F)c12`, the pIC50 in series [1] is 8.40; in [5], 7.00.

For `Nc1nccn2c([C@@H]3CC[C@H]4CCC(=O)N4C3)nc(-c3ccc(C(=O)Nc4cc(C(F)(F)F)ccn4)cc3OC3CC3)c12`, the clearance in [6] was 42 mL/min/kg. Further, the Vd in series [7] stood at 4.2 L/kg. This compound gave an AUC in series [3] of 1.4 µM·h. For the same compound, the half-life in series [8] is 138 min. The same compound displayed a Cmax in series [9] of 140 nM. In addition, the Tmax in series [10] was 3.5 h. The bioavailability in [11] turned out to be 14%.

For `Nc1nccn2c([C@@H]3CC[C@H]4CCC(=O)N4C3)nc(-c3ccc(C(=O)Nc4cc(C(F)(F)F)ccn4)cc3O)c12`, in [1], the pIC50 is 7.96.

As for `N#Cc1cc(C(=O)Nc2cc(C(F)(F)F)ccn2)ccc1-c1nc([C@@H]2CC[C@H]3CCC(=O)N3C2)n2ccnc(N)c12`, in series [1], the pIC50 was 6.57.

Regarding `C[C@@H]1OC(=O)N2C[C@H](c3nc(-c4ccc(C(=O)Nc5cc(C(F)(F)F)ccn5)cc4)c4c(N)nccn34)CC[C@@H]12`, the pIC50 in series [2] was 9.89; in series [1], 8.31; in series [5] it was 7.07.

For the compound `CN1C[C@@H]2CC[C@@H](c3nc(-c4ccc(C(=O)Nc5cc(C(F)(F)F)ccn5)cc4)c4c(N)nccn34)CN2C1=O`, in [1], the pIC50 is 6.39.

With `Nc1nccn2c([C@@H]3CC[C@H]4CCC(=O)N4C3)nc(-c3ccc(C(=O)Nc4cc(C(F)(F)F)ccn4)cc3OC(F)F)c12`, the figures for the pIC50 in series [1] and in series [5] were 7.70 and 6.38, respectively.

Consider `Nc1nccn2c([C@@H]3CC[C@H]4CCC(=O)N4C3)nc(-c3ccc(C(=O)Nc4cc(C(F)(F)F)ccn4)cc3OC(F)(F)F)c12`, for which the negative-log IC50 (pIC50) in [2] is 8.00; in series [1], 7.13.

`CCOc1cc(C(=O)Nc2cc(C(F)(F)F)ccn2)ccc1-c1nc([C@@H]2CC[C@H]3CCC(=O)N3C2)n2ccnc(N)c12`: the pIC50 in series [1] is 8.00; in series [5] it was 7.04.
